Measurements published in patent publication US8802634B2, “CD40-L Inhibitory Peptides” (Phylogica Limited, priority 2008, dated 2014).
Entries after “also recorded” stand apart in the source; their conditions may differ. Blank lines part the entries; values can stand above or below the compound they belong to. Where a SMILES comes first, the peptide text is derived from it. Bridges are numbered along the chain shown (N, C = ends). Roman numbers before positions name the chains, in order. Where no end group is shown, it is not given here. [ ]: non-standard residue; d: D form. AEEA = NCCOCCOCC(=O)O

Columns and labels:
CD40L/CD40-Fc = biological target: T1, CD40L/CD40-Fc (Homo sapiens, UniProt P29965); test: Chemiluminescent proximity assay (Alphascreen) of CD40L-CD40 interaction; format: binding; conditions: for inhibition of CD40L-CD40 interaction relative to monomeric peptide controls: qualitative
T1 sequence (P29965 113-261 limits assumed): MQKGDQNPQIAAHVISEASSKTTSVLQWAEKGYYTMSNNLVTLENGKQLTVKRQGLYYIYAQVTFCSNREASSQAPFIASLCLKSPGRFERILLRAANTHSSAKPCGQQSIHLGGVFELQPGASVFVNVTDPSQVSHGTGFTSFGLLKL
Description: In one example, the Alphascreen assay (PerkinElmer) was employed according to the manufacturer's instructions.
Homodimers and heterodimers were also assayed by chemiluminescent proximity assay for their ability to inhibit CD40L-CD40 interaction.

[1] = biological target: CD40L-induced CD86 expression on primary B-cells (Homo sapiens, UniProt P29965); test: Inhibition of CD40L-induced CD86 expression on primary B-cells (FACS); format: cell-based; conditions: for inhibition of CD40L-induced CD86 expression (qualitative): figure legends
Description: In one example, the ability of a peptide, analog or derivative of the invention to inhibit or reduce or delay expression of CD86 on primary B-cells was determined in the presence and absence of the peptides, analogs and derivatives of the invention. In particular, CD86 expression was determined by FACS.
(§1) In these assays, CD40L induced CD86 expression in a concentration-dependent manner in the absence of a peptidyl inhibitor of the present invention with an EC50 value of about 9 nM (FIG. 6d, 6e). As a control in these assays, LPS-induced expression of CD86 mediated by the Toll-like receptors TLR 2/4, and TNFα-induced cytoxicity, were also assayed to exclude effects mediated by ligands other than CD40L.
In a similar series of bioassays, dimeric forms of the CD40L peptide inhibitors were also tested for their ability to inhibit or reduce CD40L-induced expression of CD86 on primary B-cells.

TNFα = test: TNFα-induced cytotoxicity (control); format: cell-based; conditions: specificity control
Description: as §1

[2] = test system: T cells from transgenic D011.10 mice; test: Antigen-specific T-cell proliferation assay; format: cell-based; conditions: 10 μM or 20 μM peptide
Description: Briefly, pooled DLN (consisting parathymic and posterior mediastinal nodes) were collected from transgenic D011.10 mice engineered to express ovalbumin-specific T cell receptors (TCRs). Enriched T-cell suspensions were prepared and stimulated with 10 μg/ml ovalbumin in the presence or absence of 10 μM or 20 μM concentration of anti-CD40L peptidyl inhibitors. The peptides tested were PEGylated serine derivatives and/or chiral analogs of peptides CD40L M1—6, CD40L M1—9, CD40L M1—18, CD40L M1—30, CD40L M1—42, CD40L M1—50, CD40L M7—82 and CD40L M7—206. Cells were cultured for 24-72 hrs and then pulsed with [^3H]thymidine for another 24 hr to measure T-cell proliferation.

CD40L = biological target: T2, CD40L (Homo sapiens, UniProt P29965); test: Octet Red label-free association/dissociation analysis; format: binding; conditions: versus CD40L M1—206
T2 construct: measures of the “on” and “off” rates of the peptides relative to soluble CD40L
T2 sequence (P29965 113-261 limits assumed): T1 sequence (P29965 113-261 limits assumed)
Description: Label-free analyses of the associations and dissociations of base peptides and serine derivatives of base peptides with the CD40L target protein were performed using the Octet Red system (ForteBio, Inc., USA) according to the manufacturer's instructions. These analyses provide kinetic constants of CD40L binding activity, especially the association rate constant (Ka) and dissociation rate constant (Kd) of binding, i.e., measures of the “on” and “off” rates of the peptides relative to soluble CD40L.

Chain of CD40L-induced CD86 expression on primary B-cells (P29965 whole entry): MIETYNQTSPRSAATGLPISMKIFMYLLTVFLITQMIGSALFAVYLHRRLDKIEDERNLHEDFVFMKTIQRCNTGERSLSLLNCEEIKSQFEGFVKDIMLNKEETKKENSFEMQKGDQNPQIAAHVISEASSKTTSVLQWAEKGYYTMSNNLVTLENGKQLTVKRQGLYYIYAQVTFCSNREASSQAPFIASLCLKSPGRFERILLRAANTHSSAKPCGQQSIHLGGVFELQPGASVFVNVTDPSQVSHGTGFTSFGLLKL
Chain of CD40L-induced CD86 expression on primary B-cells (P25942 21-277 partner): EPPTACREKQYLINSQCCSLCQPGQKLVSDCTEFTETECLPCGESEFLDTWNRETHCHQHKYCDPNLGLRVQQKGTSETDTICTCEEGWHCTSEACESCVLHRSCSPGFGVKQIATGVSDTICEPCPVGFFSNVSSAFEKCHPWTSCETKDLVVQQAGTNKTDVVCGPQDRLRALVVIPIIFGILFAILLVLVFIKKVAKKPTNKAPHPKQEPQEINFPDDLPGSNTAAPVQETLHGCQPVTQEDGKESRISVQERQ

- EC50 (CD40L/CD40-Fc; monomeric and dimeric peptides, Table 5, read-out: EC50): 564 nM
- EC50 ([1]; monomeric and dimeric peptides, Table 7, read-out: EC50): 564 nM
Compound: CC(C)C[C@H](NC(=O)[C@H](Cc1ccc(O)cc1)NC(=O)[C@H](CC(=O)O)NC(=O)[C@H](CCCNC(=N)N)NC(=O)[C@H](CCCNC(=N)N)NC(=O)[C@H](Cc1ccccc1)NC(=O)[C@H](CO)NC(=O)[C@H](CO)NC(=O)[C@H](Cc1ccc(O)cc1)NC(=O)[C@H](Cc1ccccc1)NC(=O)[C@H](CCCNC(=N)N)NC(=O)[C@H](Cc1ccccc1)NC(=O)[C@H](CC(C)C)NC(=O)[C@H](Cc1ccccc1)NC(=O)[C@H](Cc1ccccc1)NC(=O)[C@H](CC(C)C)NC(=O)[C@H](CC(N)=O)NC(=O)[C@H](Cc1ccc(O)cc1)NC(=O)[C@H](CCCNC(=N)N)NC(=O)[C@@H]1CCCN1C(=O)[C@@H]1CCCN1)C(=O)N[C@@H](Cc1ccc(O)cc1)C(=O)N[C@@H](Cc1ccccc1)C(=O)O [CD40L M1_9s] (H-PPRYNLFFLFRFYSSFRRDYLYF-OH; N-terminus and C-terminus assumed)
- inhibition of rTNFα-induced cytoxicity (TNFα): lack of inhibition; also recorded: no significant inhibition

Compound: CC[C@H](C)[C@H](NC(=O)[C@H](CO)NC(=O)[C@H](Cc1c[nH]c2ccccc12)NC(=O)[C@H](CCC(N)=O)NC(=O)[C@@H](NC(=O)[C@@H]1CCCN1C(=O)[C@H](Cc1ccccc1)NC(=O)[C@H](Cc1ccccc1)NC(=O)[C@H](Cc1c[nH]c2ccccc12)NC(=O)CNC(=O)[C@H](Cc1ccc(O)cc1)NC(=O)[C@H](CCCCN)NC(=O)[C@H](CC(C)C)NC(=O)[C@@H](NC(=O)[C@H](Cc1c[nH]cn1)NC(=O)[C@H](CO)NC(=O)[C@H](CCCNC(=N)N)NC(=O)[C@H](Cc1ccc(O)cc1)NC(=O)[C@@H]1CCCN1C(=O)[C@@H](NC(=O)[C@H](Cc1ccccc1)NC(=O)[C@@H]1CCCN1C(=O)[C@@H](N)CC(C)C)C(C)C)C(C)C)C(C)C)C(=O)N[C@@H](Cc1ccccc1)C(=O)N[C@@H](C)C(=O)N[C@H](C(=O)N[C@@H](CC(C)C)C(=O)N1CCC[C@H]1C(=O)N[C@@H](Cc1ccccc1)C(=O)N[C@@H](CCC(N)=O)C(=O)N[C@@H](Cc1ccc(O)cc1)C(=O)N[C@@H](CC(C)C)C(=O)N[C@@H](Cc1c[nH]cn1)C(=O)N[C@@H](CCCNC(=N)N)C(=O)N[C@@H](CO)C(=O)N[C@@H](CCCNC(=N)N)C(=O)O)C(C)C [CD40L M1_18s] (H-LPFVPYRSHVLKYGWFFPVQWSIFAVLPFQYLHRSR-OH; N-terminus and C-terminus assumed)
- inhibition of rTNFα-induced cytoxicity (TNFα; listed as M1—18*S): lack of inhibition
- inhibition of rTNFα-induced cytoxicity (TNFα; listed as M1—18S): no significant inhibition

Compound: AQWWHHRFSFLGAIQFFERGAAD [CD40L M1_30rd]
- relative performance in T-cell proliferation assay [2]: best-performing

Compound: HPFSIKNVFSIWNFFSVY [CD40L M1_6s]
- inhibition of rTNFα-induced cytoxicity (TNFα): lack of inhibition; also recorded: no significant inhibition

- inhibition of CD40L-CD40 interaction relative to monomeric peptide controls (CD40L/CD40-Fc): enhanced inhibition
- inhibition of CD40L-induced CD86 expression (qualitative) [1]: enhanced inhibition
Compound: I: H-C[AEEA]LLLFFFSPPFSIFSFSLTTLS / II: H-C[AEEA]HPFSIKNVFSIWNFFSVY (disulfide I:1-II:1) [Cys_M1_6S-Cys_M1_189S heterodimer]

- inhibition of CD40L-CD40 interaction relative to monomeric peptide controls (CD40L/CD40-Fc): enhanced inhibition
- inhibition of CD40L-induced CD86 expression (qualitative) [1]: enhanced inhibition
Compound: I: H-C[AEEA]PPRYNLFFLFRFYSSFRRDYLYF / II: H-C[AEEA]HPFSIKNVFSIWNFFSVY (disulfide I:1-II:1) [Cys_M1_6S-Cys_M1_9S heterodimer]

Compound: PFTWRPTIFWIIQLIVYMRHFGGGGSRSELLRENICRYVSLFDHPLQRNTPLDELRFVIFDTETSGFDLVKDRILSIR [CD40L D1_0014]
- fold higher affinity for CD40L than base monomeric peptide (CD40L): 6 fold

Compound: SKVRMQFDIINFPVNVGFLVFSH [CD40L M1_42rd]
- relative performance in T-cell proliferation assay [2]: best-performing
